Experimental data: publication PMC4447455, “Towards Elucidating Carnosic Acid Biosynthesis in Lamiaceae: Functional Characterization of the Three First Steps of the Pathway in Salvia fruticosa and Rosmarinus officinalis” (PLoS ONE, 2015)

What was measured:
SfKSL [1] = biological target: T1, SfKSL (Salvia fruticosa, UniProt A0A0C5QH30); test: coupled assay with SfCPS, GC-MS of product; type: biochemical; conditions: CDP formed in situ by SfCPS from 200 uM GGDP; pH 7.0, 20 mM MgCl2, 0.2 mM MnCl2, room temperature overnight
T1 construct: gene KSL; pseudomature SfKSLm without predicted N-terminal transit peptide (49 residues); full ORF 1755 bp; lacks gamma domain
T1 sequence (A0A0C5QH30 50-584): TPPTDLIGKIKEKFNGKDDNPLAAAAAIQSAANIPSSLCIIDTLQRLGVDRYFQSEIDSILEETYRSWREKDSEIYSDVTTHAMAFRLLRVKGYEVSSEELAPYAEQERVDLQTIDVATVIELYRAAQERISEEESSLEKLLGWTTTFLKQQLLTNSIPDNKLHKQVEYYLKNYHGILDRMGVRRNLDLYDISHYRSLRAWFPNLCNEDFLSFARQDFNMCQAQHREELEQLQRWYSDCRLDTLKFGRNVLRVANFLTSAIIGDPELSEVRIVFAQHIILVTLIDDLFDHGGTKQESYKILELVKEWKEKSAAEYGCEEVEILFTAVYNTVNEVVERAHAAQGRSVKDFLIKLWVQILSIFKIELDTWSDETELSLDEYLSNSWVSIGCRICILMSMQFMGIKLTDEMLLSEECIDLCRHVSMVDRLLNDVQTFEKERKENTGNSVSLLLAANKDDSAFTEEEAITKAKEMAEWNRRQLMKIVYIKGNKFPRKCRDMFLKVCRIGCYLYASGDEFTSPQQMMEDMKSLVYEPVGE

SfCPS = biological target: T2, SfCPS (Salvia fruticosa, UniProt A0A0A7RQ84); test: GC-MS of dephosphorylated product (copalol); type: biochemical; conditions: pH 7.0, 20 mM MgCl2, 0.2 mM MnCl2, 60 uM GGDP, room temperature overnight
T2 construct: gene CDS; pseudomature SfCPSm without predicted N-terminal transit peptide (30 residues); full ORF 2391 bp

RoFS1 = biological target: T3, RoFS1 (Salvia rosmarinus, UniProt A0A0C5Q4Y6); test: yeast co-expression, GC-MS; type: cell-based; conditions: co-expressed RoCPS1m, RoKSL1f, PtCPR2; also shown in N. benthamiana
T3 construct: gene CYP76AH22; P450 ORF in pWTDH3, expressed in S. cerevisiae AM113 with RoCPS1m, RoKSL1f and poplar reductase PtCPR2; also N. benthamiana with SfCPS, SfKSL, AtCPR1
T3 sequence (A0A0C5Q4Y6 1-493): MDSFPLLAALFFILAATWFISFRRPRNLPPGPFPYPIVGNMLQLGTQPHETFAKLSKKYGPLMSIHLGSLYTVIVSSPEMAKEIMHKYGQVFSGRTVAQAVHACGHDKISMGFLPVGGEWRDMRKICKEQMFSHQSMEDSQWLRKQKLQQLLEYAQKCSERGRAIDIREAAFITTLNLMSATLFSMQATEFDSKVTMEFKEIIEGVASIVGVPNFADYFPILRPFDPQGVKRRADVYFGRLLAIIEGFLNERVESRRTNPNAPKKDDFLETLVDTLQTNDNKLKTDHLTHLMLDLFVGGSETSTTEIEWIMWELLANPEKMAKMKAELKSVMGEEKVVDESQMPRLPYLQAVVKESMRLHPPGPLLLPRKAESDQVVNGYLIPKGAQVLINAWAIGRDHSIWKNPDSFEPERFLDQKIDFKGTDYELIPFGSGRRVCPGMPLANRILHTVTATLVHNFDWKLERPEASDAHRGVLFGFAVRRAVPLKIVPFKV

RoFS2 = biological target: T4, RoFS2 (Salvia rosmarinus, UniProt A0A0C5QEW3); test: yeast co-expression, GC-MS; type: cell-based; conditions: co-expressed RoCPS1m, RoKSL1f, PtCPR2; also shown in N. benthamiana
T4 construct: gene FS2; P450 ORF in pWTDH3, expressed in S. cerevisiae AM113 with RoCPS1m, RoKSL1f and poplar reductase PtCPR2; also N. benthamiana with SfCPS, SfKSL, AtCPR1

SfFS = biological target: T5, SfFS (Salvia fruticosa, UniProt A0A0C5QRZ2); test: yeast co-expression, GC-MS; type: cell-based; conditions: co-expressed SfCPS, SfKSL, PtCPR2; also shown in N. benthamiana
T5 construct: gene CYP76AH24; P450 ORF in pWTDH3, expressed in S. cerevisiae AM104 with SfCPSm, SfKSLm and poplar reductase PtCPR2; also N. benthamiana with AtCPR1
T5 sequence (A0A0C5QRZ2 1-492): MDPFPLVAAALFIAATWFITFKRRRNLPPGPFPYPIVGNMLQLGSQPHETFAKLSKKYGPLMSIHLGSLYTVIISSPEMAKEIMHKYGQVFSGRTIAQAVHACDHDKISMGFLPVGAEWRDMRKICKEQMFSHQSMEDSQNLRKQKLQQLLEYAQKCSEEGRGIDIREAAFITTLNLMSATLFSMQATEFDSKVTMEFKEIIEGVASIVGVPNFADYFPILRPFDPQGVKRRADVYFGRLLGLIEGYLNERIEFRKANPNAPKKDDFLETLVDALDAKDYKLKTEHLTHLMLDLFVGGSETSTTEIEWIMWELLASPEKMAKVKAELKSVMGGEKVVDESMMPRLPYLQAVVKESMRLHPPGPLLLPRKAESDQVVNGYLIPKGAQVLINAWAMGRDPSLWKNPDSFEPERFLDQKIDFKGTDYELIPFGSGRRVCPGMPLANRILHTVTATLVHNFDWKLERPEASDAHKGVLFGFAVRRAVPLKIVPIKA

SfKSL [2] = biological target: T1, SfKSL; test: coupled assay with SfCPS, GC-MS; NMR of product from yeast; type: biochemical; conditions: CDP formed in situ by SfCPS from 200 uM GGDP; pH 7.0, 20 mM MgCl2, 0.2 mM MnCl2, room temperature overnight

T2 sequence (A0A0A7RQ84 entry or part of it): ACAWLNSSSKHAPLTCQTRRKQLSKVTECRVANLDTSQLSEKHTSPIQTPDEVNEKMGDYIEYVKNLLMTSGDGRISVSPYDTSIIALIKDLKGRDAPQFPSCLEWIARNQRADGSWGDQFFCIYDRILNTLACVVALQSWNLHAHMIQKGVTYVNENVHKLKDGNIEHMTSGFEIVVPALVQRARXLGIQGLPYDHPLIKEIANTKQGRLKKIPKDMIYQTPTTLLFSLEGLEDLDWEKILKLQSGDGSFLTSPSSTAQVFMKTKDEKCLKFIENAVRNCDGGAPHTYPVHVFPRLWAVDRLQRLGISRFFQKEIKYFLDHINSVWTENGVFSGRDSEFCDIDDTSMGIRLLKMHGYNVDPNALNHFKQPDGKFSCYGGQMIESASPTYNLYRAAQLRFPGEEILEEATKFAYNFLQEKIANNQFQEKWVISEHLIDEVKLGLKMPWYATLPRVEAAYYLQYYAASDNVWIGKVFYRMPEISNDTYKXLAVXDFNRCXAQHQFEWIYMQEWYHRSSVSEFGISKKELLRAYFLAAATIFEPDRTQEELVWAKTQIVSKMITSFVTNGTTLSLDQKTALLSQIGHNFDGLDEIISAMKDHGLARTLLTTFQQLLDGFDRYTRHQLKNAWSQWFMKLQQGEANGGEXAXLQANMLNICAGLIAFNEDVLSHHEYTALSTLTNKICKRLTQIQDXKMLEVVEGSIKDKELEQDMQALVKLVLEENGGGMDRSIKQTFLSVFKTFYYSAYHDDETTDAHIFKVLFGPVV
T4 sequence (A0A0C5QEW3 entry or part of it): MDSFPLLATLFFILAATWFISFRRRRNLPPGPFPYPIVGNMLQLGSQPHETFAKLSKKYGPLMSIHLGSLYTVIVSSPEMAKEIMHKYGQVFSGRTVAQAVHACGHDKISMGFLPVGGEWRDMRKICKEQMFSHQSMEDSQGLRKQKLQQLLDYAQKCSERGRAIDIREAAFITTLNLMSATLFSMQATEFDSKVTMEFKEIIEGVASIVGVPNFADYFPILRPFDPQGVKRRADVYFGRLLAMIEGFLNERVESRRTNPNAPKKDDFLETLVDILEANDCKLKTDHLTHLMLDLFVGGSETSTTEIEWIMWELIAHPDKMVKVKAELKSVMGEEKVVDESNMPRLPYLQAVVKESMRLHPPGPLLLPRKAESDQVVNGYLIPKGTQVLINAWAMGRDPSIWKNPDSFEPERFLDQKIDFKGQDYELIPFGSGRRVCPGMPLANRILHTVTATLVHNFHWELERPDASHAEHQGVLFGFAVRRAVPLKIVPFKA

C=C1CC[C@H]2C(C)(C)CCC[C@]2(C)[C@H]1CC/C(C)=C/COP(=O)(O)OP(=O)(O)O [CDP]
coupled assay with SfCPS, GC-MS of product (SfKSL [1]): simultaneously with SfCPS in order to provide the necessary CDP substrate | GC-MS of dephosphorylated product (copalol) (SfCPS; detected as copalol after alkaline phosphatase): identify the dephosphorylated product of the SfCPS catalyzed reaction as copalol

CC(C)=CCC/C(C)=C/CC/C(C)=C/CC/C(C)=C/COP(=O)(O)OP(=O)(O)O [GGDP]
GC-MS of dephosphorylated product (copalol) (SfCPS): His-tagged SfCPS protein was affinity purified and incubated with GGDP

CC(C)c1cc2c(cc1O)[C@@]1(C)CCCC(C)(C)[C@@H]1CC2 [ferruginol]
yeast co-expression, GC-MS (RoFS1): GC-MS revealed the formation of ferruginol in all three strains analyzed | yeast co-expression, GC-MS (RoFS2): GC-MS revealed the formation of ferruginol in all three strains analyzed | yeast co-expression, GC-MS (SfFS): GC-MS revealed the formation of ferruginol in all three strains analyzed

CC(C)C1=CCC2=C(CC[C@H]3C(C)(C)CCC[C@]23C)C1 [miltiradiene]
coupled assay with SfCPS, GC-MS; NMR of product from yeast (SfKSL [2]): revealed a peak, which most closely corresponded to miltiradiene
